Test results: US9474790B2, “Stable, protracted GLP-1/glucagon receptor co-agonists for medical use” (Novo Nordisk A/S, priority 2013, dated 2016)
Numbered stars: 1 amine (or outer) side, 2 acyl side, 3 side chain; on linkers, the order of the positions; unused ones are H or OH. Bridge positions count the residues as written; N and C are the ends. Square brackets hold non-standard residues; d marks the D form. Side chains are listed from the residue outwards. Peptide text beside a SMILES is read from it. I, II: the chains in the order shown. * marks the point of attachment. C18 diacid = O=C(O)CCCCCCCCCCCCCCCCC(=O)*; γGlu = O=C(O)[C@H](CCC(=O)[*:2])N[*:1]; AEEA = NCCOCCOCC(=O)O; Aib = CC(C)(N)C(=O)O

Test: Thioflavin T (ThT) fibrillation assay for physical stability
Type: physicochemical
Settings: 250 μM in 10 mM HEPES buffer, pH 7.5, 37° C., shaking 960 rpm
Outline: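 Peptide at 250 μM in 10 mM HEPES pH 7.5 with 1 μM ThT, at 37° C with 960 rpm orbital shaking. Fluorescence (ex 444/em 485 nm) read every 20 min after 10 min pre-incubation; sigmoidal fit gives lag time (t0−2τ) and kapp (1/τ). Recovery is RP-HPLC peptide in the centrifuged, 0.22 μm-filtered supernatant as % of initial.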

Compound	THT assay Lag time (Ex. 76) [h]
CC(C)C[C@H](NC(=O)[C@H](Cc1c[nH]c2ccccc12)NC(=O)[C@H](C)NC(=O)[C@@H](NC(=O)[C@H](Cc1ccccc1)NC(=O)[C@H](CCC(=O)O)NC(=O)[C@H](CCCNC(=N)N)NC(=O)[C@H](C)NC(=O)[C@H](CCCNC(=N)N)NC(=O)[C@H](CCCNC(=N)N)NC(=O)[C@H](CCCCNC(=O)CC[C@H](NC(=O)COCCOCCNC(=O)COCCOCCNC(=O)CC[C@H](NC(=O)CC[C@H](NC(=O)CCCCCCCCCCCCCCCCC(=O)O)C(=O)O)C(=O)O)C(=O)O)NC(=O)[C@H](CC(=O)O)NC(=O)[C@H](CC(C)C)NC(=O)[C@H](Cc1ccc(O)cc1)NC(=O)[C@H](CCCCN)NC(=O)[C@H](CO)NC(=O)[C@H](CC(C)C)NC(=O)[C@H](CC(=O)O)NC(=O)[C@H](CO)NC(=O)[C@@H](NC(=O)[C@H](Cc1ccccc1)NC(=O)[C@@H](NC(=O)CNC(=O)[C@H](CCC(N)=O)NC(=O)C(C)(C)NC(=O)[C@@H](N)Cc1c[nH]cn1)[C@@H](C)O)[C@@H](C)O)C(C)C)C(=O)N[C@@H](CC(C)C)C(=O)N[C@@H](CC(N)=O)C(=O)N[C@H](C(N)=O)[C@@H](C)O [Example 19, N^ε29-[(4S)-4-carboxy-4-[[2-[2-[2-[[2-[2-[2-[[(4S)-4-carboxy-4-[[(4S)-4-carboxy-4-(17-carboxyheptadecanoylamino)butanoyl]amino]butanoyl]amino]ethoxy]ethoxy]acetyl]amino]ethoxy]ethoxy]acetyl]amino]butanoyl]-[Aib2,Leu10,Lys16,Arg20,Glu21,Ala24,Leu27]-Glucagon amide] (H-H[Aib]QGTFTSDLSKYLDK([γGlu-AEEA-AEEA-γGlu-γGlu-C18 diacid])RRAREFVAWLLNT-NH2; N-terminus assumed)	6.7
CC(C)C[C@H](NC(=O)[C@H](Cc1ccc(O)cc1)NC(=O)[C@H](CCCCN)NC(=O)[C@H](CO)NC(=O)[C@H](CC(C)C)NC(=O)[C@H](CC(=O)O)NC(=O)[C@H](CO)NC(=O)[C@@H](NC(=O)[C@H](Cc1ccccc1)NC(=O)[C@@H](NC(=O)CNC(=O)[C@H](CCC(N)=O)NC(=O)C(C)(C)NC(=O)[C@@H](N)Cc1c[nH]cn1)[C@@H](C)O)[C@@H](C)O)C(=O)N[C@@H](CCC(=O)O)C(=O)N[C@@H](CO)C(=O)N[C@@H](CCCNC(=N)N)C(=O)N[C@@H](CCCNC(=N)N)C(=O)N[C@@H](C)C(=O)N[C@@H](CCCNC(=N)N)C(=O)N[C@@H](CCC(=O)O)C(=O)N[C@@H](Cc1ccccc1)C(=O)N[C@H](C(=O)N[C@@H](CCC(N)=O)C(=O)N[C@@H](Cc1c[nH]c2ccccc12)C(=O)N[C@@H](CC(C)C)C(=O)N[C@@H](CC(C)C)C(=O)N[C@@H](CCCCNC(=O)CC[C@H](NC(=O)COCCOCCNC(=O)COCCOCCNC(=O)CC[C@H](NC(=O)CC[C@H](NC(=O)CCCCCCCCCCCCCCCCC(=O)O)C(=O)O)C(=O)O)C(=O)O)C(=O)N[C@H](C(N)=O)[C@@H](C)O)C(C)C [Example 20, N^ε29-[(4S)-4-carboxy-4-[[2-[2-[2-[[2-[2-[2-[[(4S)-4-carboxy-4-[[(4S)-4-carboxy-4-(17-carboxyheptadecanoylamino)butanoyl]amino]butanoyl]amino]ethoxy]ethoxy]acetyl]amino]ethoxy]ethoxy]acetyl]amino]butanoyl]-[Aib2,Leu10,Glu15,Arg20,Glu21,Leu27,Lys28]-Glucagon amide] (H-H[Aib]QGTFTSDLSKYLESRRAREFVQWLLK([γGlu-AEEA-AEEA-γGlu-γGlu-C18 diacid])T-NH2; N-terminus assumed)	6
CC(C)C[C@H](NC(=O)[C@H](CC(C)C)NC(=O)[C@H](Cc1c[nH]c2ccccc12)NC(=O)[C@H](CCC(N)=O)NC(=O)[C@@H](NC(=O)[C@H](Cc1ccccc1)NC(=O)[C@H](CCC(=O)O)NC(=O)[C@H](CCCNC(=N)N)NC(=O)[C@H](C)NC(=O)[C@H](CCCNC(=N)N)NC(=O)[C@H](CCCNC(=N)N)NC(=O)[C@H](CO)NC(=O)[C@H](CCC(=O)O)NC(=O)[C@H](CC(C)C)NC(=O)[C@H](Cc1ccc(O)cc1)NC(=O)[C@H](CCCCN)NC(=O)[C@H](CO)NC(=O)[C@H](CC(C)C)NC(=O)[C@H](CC(=O)O)NC(=O)[C@H](CO)NC(=O)[C@@H](NC(=O)[C@H](Cc1ccccc1)NC(=O)[C@@H](NC(=O)CNC(=O)[C@H](CCC(N)=O)NC(=O)C(C)(C)NC(=O)[C@@H](N)Cc1c[nH]cn1)[C@@H](C)O)[C@@H](C)O)C(C)C)C(=O)N[C@@H](CC(N)=O)C(=O)N[C@@H](CCCCNC(=O)CC[C@H](NC(=O)COCCOCCNC(=O)COCCOCCNC(=O)CC[C@H](NC(=O)CC[C@H](NC(=O)CCCCCCCCCCCCCCCCC(=O)O)C(=O)O)C(=O)O)C(=O)O)C(N)=O [Example 21, N^ε29-[(4S)-4-carboxy-4-[[2-[2-[2-[[2-[2-[2-[[(4S)-4-carboxy-4-[[(4S)-4-carboxy-4-(17-carboxyheptadecanoylamino)butanoyl]amino]butanoyl]amino]ethoxy]ethoxy]acetyl]amino]ethoxy]ethoxy]acetyl]amino]butanoyl]-[Aib2,Leu10,Glu15,Arg20,Glu21,Leu27,Lys29]-Glucagon amide] (H-H[Aib]QGTFTSDLSKYLESRRAREFVQWLLNK([γGlu-AEEA-AEEA-γGlu-γGlu-C18 diacid])-NH2; N-terminus assumed)	18
CC(C)C[C@H](NC(=O)[C@H](Cc1ccc(O)cc1)NC(=O)[C@H](CCCCN)NC(=O)[C@H](CO)NC(=O)[C@H](CC(C)C)NC(=O)[C@H](CC(=O)O)NC(=O)[C@H](CO)NC(=O)[C@@H](NC(=O)[C@H](Cc1ccccc1)NC(=O)[C@@H](NC(=O)CNC(=O)[C@H](CCC(N)=O)NC(=O)C(C)(C)NC(=O)[C@@H](N)Cc1c[nH]cn1)[C@@H](C)O)[C@@H](C)O)C(=O)N[C@@H](CCC(=O)O)C(=O)N[C@@H](CO)C(=O)N[C@@H](CCCNC(=N)N)C(=O)N[C@@H](CCCNC(=N)N)C(=O)N[C@@H](C)C(=O)N[C@@H](CCCNC(=N)N)C(=O)N[C@@H](CCC(=O)O)C(=O)N[C@@H](Cc1ccccc1)C(=O)N[C@H](C(=O)N[C@@H](CCC(N)=O)C(=O)N[C@@H](Cc1c[nH]c2ccccc12)C(=O)N[C@@H](CC(C)C)C(=O)N[C@@H](CC(C)C)C(=O)N[C@@H](CCCCNC(=O)CC[C@H](NC(=O)CC[C@H](NC(=O)COCCOCCNC(=O)COCCOCCNC(=O)CC[C@H](NC(=O)CCCCCCCCCCCCCCCCC(=O)O)C(=O)O)C(=O)O)C(=O)O)C(=O)N[C@H](C(N)=O)[C@@H](C)O)C(C)C [Example 23, N^ε28-[(4S)-4-carboxy-4-[[(4S)-4-carboxy-4-[[2-[2-[2-[[2-[2-[2-[[(4S)-4-carboxy-4-(17-carboxyheptadecanoylamino)butanoyl]amino]ethoxy]ethoxy]acetyl]amino]ethoxy]ethoxy]acetyl]amino]butanoyl]amino]butanoyl]-[Aib2,Leu10,Glu15,Arg20,Glu21,Leu27,Lys28]-Glucagon amide] (H-H[Aib]QGTFTSDLSKYLESRRAREFVQWLLK([γGlu-γGlu-AEEA-AEEA-γGlu-C18 diacid])T-NH2; N-terminus assumed)	45
CC(C)C[C@H](NC(=O)[C@H](Cc1ccc(O)cc1)NC(=O)[C@H](CCCCN)NC(=O)[C@H](CO)NC(=O)[C@H](CC(C)C)NC(=O)[C@H](CC(=O)O)NC(=O)[C@H](CO)NC(=O)[C@@H](NC(=O)[C@H](Cc1ccccc1)NC(=O)[C@@H](NC(=O)CNC(=O)[C@H](CCC(N)=O)NC(=O)C(C)(C)NC(=O)[C@@H](N)Cc1c[nH]cn1)[C@@H](C)O)[C@@H](C)O)C(=O)N[C@@H](CCC(=O)O)C(=O)N[C@@H](CO)C(=O)N[C@@H](CCCCN)C(=O)N[C@@H](CCCNC(=N)N)C(=O)N[C@@H](C)C(=O)N[C@@H](CCCNC(=N)N)C(=O)N[C@@H](CCC(=O)O)C(=O)N[C@@H](Cc1ccccc1)C(=O)N[C@H](C(=O)N[C@@H](CCC(N)=O)C(=O)N[C@@H](Cc1c[nH]c2ccccc12)C(=O)N[C@@H](CC(C)C)C(=O)N[C@@H](CC(C)C)C(=O)N[C@@H](CCCCNC(=O)CNC(=O)[C@H](CO)NC(=O)[C@H](CCC(=O)O)NC(=O)CNC(=O)[C@H](CO)NC(=O)CC[C@H](NC(=O)CC[C@H](NC(=O)CCCCCCCCCCCCCCCCC(=O)O)C(=O)O)C(=O)O)C(=O)N[C@H](C(N)=O)[C@@H](C)O)C(C)C [Example 25, N^ε28-[2-[[(2S)-2-[[(2S)-4-carboxy-2-[[2-[[(2S)-2-[[(4S)-4-carboxy-4-[[(4S)-4-carboxy-4-(17-carboxyheptadecanoylamino)butanoyl]amino]butanoyl]amino]-3-hydroxypropanoyl]amino]acetyl]amino]butanoyl]amino]-3-hydroxypropanoyl]amino]acetyl]-[Aib2,Leu10,Glu15,Lys17,Arg20,Glu21,Leu27,Lys28]-Glucagon amide] (I: H-H[Aib]QGTFTSDLSKYLESKRAREFVQWLLKT-NH2 / II: {C18 diacid-γGlu-γGlu}-SGESG; amide I:28-II:C; N-terminus assumed)	45
